Assay results taken from paper PMC3197762 (Nature chemical biology, 2011).

What was measured:
[1] = test system: HTLA cells not expressing a Tango receptor; experiment: Tango negative control, cells transfected with pEYFP-N1; type: cell-based, human
human V2 Tango receptor = human V2 Tango receptor (Homo sapiens, UniProt P30518); experiment: Tango control, human V2 Tango receptor; type: cell-based; conditions: data not shown

| SMILES | activity on HTLA cells not expressing a Tango receptor [1] | effect on HTLA cells expressing the human V2 Tango receptor (human V2 Tango receptor) |
| --- | --- | --- |
| CCCN1CCC[C@@H]2Cc3n[nH]cc3C[C@H]21 [Quinpirole] | inactive | no effect |
| CN(C)CCCN1c2ccccc2Sc2ccc(Cl)cc21 [Chlorpromazine] | inactive | no effect |
